# Measurements taken from patent US20090191193A1, “Aryl Vinyl Sulfides, Sulfones, Sulfoxides and Sulfonamides, Derivatives Thereof and Therapeutic Uses Thereof” (TEMPLE UNIVERSITY-OF THE COMMONWEALTH SYSTEM OF HIGHER …, priority 2006, published 2009).
# Tests used:
# [1] = tested on: DU145 (prostate cancer); assay: Effect on tumor cell lines, viable cell count by trypan blue exclusion (Latham et al.): DU145; type: cell-based; details: DU145 prostate cancer cells, viable cell count 96 hours after treatment
# Protocol: (§1) The effect of the compounds of the invention on tumor cells was determined by the assay described by Latham et al., Oncogene 12:827-837 (1996). Tumor cells DU145 (prostate cancer), K562 (chronic myelogenous leukaemia), BT20 (breast carcinoma), H157 (non small cell lung carcinoma), or DLD1 (colon carcinoma) were plated in 6-well dishes at a cell density of 1.0×10^5 cells per 35-mm^2 well. […] The total number of viable cells was determined 96 hours later by trypsinizing the wells and counting the number of viable cells, as determined by trypan blue exclusion, using a hemacytometer. Normal HFL cells were treated with the same compounds under the same conditions of concentration and time.
# [2] = tested on: K562 (chronic myelogenous leukaemia); assay: Effect on tumor cell lines, viable cell count by trypan blue exclusion (Latham et al.): K562; type: cell-based; details: K562 chronic myelogenous leukaemia cells, viable cell count 96 hours after treatment
# Protocol: as §1
Structure (SMILES),melting point [°C],"IC50 ([1]; Homo sapiens, DU-145, 96 h) [µM]","IC50 ([2]; Homo sapiens, K562, 96 h) [µM]",IC50 [1] [µM],IC50 [2] [µM]
N#C/C(=C\c1c[nH]c2ccc(Br)cc12)S(=O)(=O)Nc1ccc(Br)cc1 [Example 222],242 to 253,25 to 50,25 to 50,,
N#C/C(=C\c1ccc(Br)cc1)S(=O)(=O)Nc1ccc(F)cc1 [Example 242],130 to 132,50 to 100,50 to 100,,
CN(C)c1ccc(/C=C(\C#N)S(=O)(=O)Nc2ccc(F)cc2)cc1 [Example 233],179 to 180,> 100,50 to 100,,
N#C/C(=C\c1ccc(F)cc1F)S(=O)(=O)Nc1ccc(F)cc1 [Example 240],135 to 139,50 to 100,50 to 100,,
Cc1ccc(NS(=O)(=O)/C(C#N)=C/c2c[nH]c3ccccc23)c(C)c1 [Example 253],192 to 194,50 to 100,25 to 50,,
COc1cc(OC)c(/C=C(\C#N)S(=O)(=O)Cc2ccc(OC)c(N)c2)c(OC)c1 [Example 36],198 to 200,25,5,,
COc1ccc(NS(=O)(=O)/C(C#N)=C/c2ccc(Br)cc2)cc1 [Example 291],102 to 103,,,50 to 100,50 to 100
N#C/C(=C\c1ccc(O)c(O)c1)S(=O)(=O)Cc1cccc(Br)c1 [Example 116],119 to 121,> 100,> 100,,
COc1ccc(/C=C(\C#N)S(=O)(=O)Nc2ccc(C)cc2C)c(OC)c1OC [Example 272],124 to 125,> 100,> 100,,
CSc1ccc(/C=C(\C#N)S(=O)(=O)Cc2ccc(Cl)cc2)cc1 [Example 43],,,,> 100,50 to 100
COc1ccc(NS(=O)(=O)/C(C#N)=C/c2cc(OC)c(OC)cc2OC)cc1 [Example 284],171 to 173,> 100,25 to 50,,
N#C/C(=C\c1ccc(O)c([N+](=O)[O-])c1)S(=O)(=O)Cc1ccc(Cl)cc1Cl [Example 109],169 to 171,> 100,> 100,,
COc1cc(OC)c(OC)cc1/C=C(\C#N)S(=O)(=O)Nc1ccc(C)cc1C [Example 258],161 to 163,> 100,50 to 100,,
N#C/C(=C\c1ccccc1OCc1ccccc1)S(=O)(=O)Cc1ccccc1 [Example 137],93 to 97,> 100,50 to 100,,
N#C/C(=C\c1ccc(Cl)c(Cl)c1)S(=O)(=O)Cc1ccc(Cl)cc1 [Example 52],145 to 155,25 to 50,10 to 25,,
N#C/C(=C\c1ccc(F)cc1F)S(=O)(=O)Cc1ccccc1 [Example 142],133 to 135,> 100,> 100,,
N#C/C(=C\c1ccccc1OCc1ccccc1)S(=O)(=O)Cc1ccc(Cl)cc1 [Example 70],129 to 137,> 100,> 100,,
COc1cc(OC)c(/C=C(\C#N)S(=O)(=O)Nc2ccc(C)cc2C)c(OC)c1 [Example 254],132 to 134,50 to 100,50 to 100,,
N#C/C(=C\c1cc(F)cc(F)c1)S(=O)(=O)Cc1ccccc1 [Example 143],148 to 150,> 100,25 to 50,,
N#C/C(=C\c1ccccc1O)S(=O)(=O)Cc1ccc(Cl)cc1 [Example 121],171 to 176,> 100,> 100,,
COc1ccccc1/C=C(\C#N)S(=O)(=O)Nc1ccc(Br)cc1 [Example 225],187 to 189,50 to 100,50 to 100,,
COc1ccc(CS(=O)(=O)/C(C#N)=C/c2c(F)c(F)c(F)c(F)c2F)cc1[N+](=O)[O-] [Example 35],144 to 146,25,1,,
N#C/C(=C\c1ccc(Br)cc1)S(=O)(=O)Nc1ccc(Br)cc1 [Example 217],174 to 176,50 to 100,25 to 50,,
N#C/C(=C\c1ccc(Br)cc1)S(=O)(=O)Cc1ccc(F)cc1 [Example 82],155 to 168,> 100,> 100,,

Structure (SMILES),melting point [°C],"IC50 ([1]; Homo sapiens, DU-145, 96 h) [µM]","IC50 ([2]; Homo sapiens, K562, 96 h) [µM]",IC50 [1] [µM],IC50 [2] [µM]
N#C/C(=C\c1c[nH]c2ccc(Cl)cc12)S(=O)(=O)Cc1ccc(Cl)cc1 [Example 73],172 to 182,25 to 50,10 to 25,,
CCOc1ccc(/C=C(\C#N)S(=O)(=O)Cc2ccc(Cl)cc2)cc1OC [Example 55],143 to 148,10 to 25,10 to 25,,
Cc1ccc(C)c(/C=C(\C#N)S(=O)(=O)Nc2ccc(Br)cc2)c1 [Example 229],172 to 174,50 to 100,25 to 50,,
N#C/C(=C\c1ccc(-c2ccccc2)cc1)S(=O)(=O)Cc1ccccc1 [Example 138],,,,> 100,> 100
COc1ccc(NS(=O)(=O)/C(C#N)=C/c2ccc(SC)cc2)cc1 [Example 293],,,,> 100,> 100
Cc1ccsc1/C=C(\C#N)S(=O)(=O)Cc1ccc(Cl)cc1 [Example 120],,,,50 to 100,25 to 50
N#C/C(=C\c1ccc(-c2ccccc2)cc1)S(=O)(=O)Nc1ccc(Br)cc1 [Example 220],,,,50 to 100,10 to 25
COc1cc(OC)c(/C=C(\[N+](=O)[O-])S(=O)(=O)Cc2ccc(F)cc2)c(OC)c1 [Example 189],,2.5,5,,
CSc1ccc(/C=C(\C#N)S(=O)(=O)Cc2ccc(Cl)cc2Cl)cc1 [Example 76],,,,50 to 100,50 to 100
CN(C)c1ccc(/C=C(\C#N)S(=O)(=O)Cc2ccc(Cl)cc2)cc1 [Example 58],,50 to 100,25 to 50,,
Cc1ccsc1/C=C(\C#N)S(=O)(=O)Cc1ccccc1 [Example 127],,,,> 100,> 100
COc1ccc(NS(=O)(=O)/C(C#N)=C/c2ccc(-c3ccccc3)cc2)cc1 [Example 286],,,,50 to 100,50 to 100
CSc1ccc(/C=C(\C#N)S(=O)(=O)Cc2ccc(F)cc2)cc1 [Example 87],,,,25 to 50,25 to 50
"CCOC(=O)c1c(C)[nH]c(/C=C(\C#N)S(=O)(=O)Cc2ccc(F)cc2)c1C [Example 37, (E)-2-[(4-fluorophenyl)methanesulfonyl]-3-(4-ethoxycarbonyl-3,5-dimethylpyrrol-2-yl)acrylonitrile]",,50 to 100,50 to 100,,
CSc1ccc(/C=C(\C#N)S(=O)(=O)Nc2ccc(C)cc2C)cc1 [Example 276],,,,> 100,> 100
Cc1ccc(NS(=O)(=O)/C(C#N)=C/c2ccc(-c3ccccc3)cc2)c(C)c1 [Example 260],,,,50 to 100,25 to 50
N#C/C(=C\c1ccc(-c2ccccc2)cc1)S(=O)(=O)Nc1ccc(F)cc1 [Example 239],,,,50 to 100,10 to 25
COc1ccc(NS(=O)(=O)/C(C#N)=C/c2cc(Cl)cc(Cl)c2Cl)cc1 [Example 294],180 to 181,,< 1,,
Cc1ccsc1/C=C(\C#N)S(=O)(=O)Cc1ccc(Cl)cc1Cl [Example 102],,,,> 100,50 to 100
COc1ccc(CS(=O)(=O)/C(C#N)=C/c2ccc(-c3ccccc3)cc2)cc1 [Example 140],,,,> 100,> 100
N#C/C(=C\c1ccc(-c2ccccc2)cc1)S(=O)(=O)Cc1ccc(Cl)cc1 [Example 67],,,,> 100,> 100
COc1ccc(CS(=O)(=O)/C(=C/c2c(OC)cc(OC)cc2OC)[N+](=O)[O-])cc1 [Example 188],,< 1,2,,
COc1ccc(CS(=O)(=O)/C(C#N)=C/c2ccc(F)cc2F)cc1 [Example 2],138 to 140,100,,,
